The source of these data is ChEMBL document CHEMBL3632483, “Synthesis and pharmacological evaluation of piperidine (piperazine)-substituted benzoxazole derivatives as multi-target antipsychotics” (Bioorg Med Chem Lett, 2015).

The pKi is the negative decadic logarithm of the Ki, by convention in mol/L. A higher pKi goes with a low Ki. Usually ED50 stands for the dose that gives a 50% effect, or the effect in half of the subjects. The LD50 is the dose at which mortality reaches 50%. Lower therefore signals greater toxicity. As a reminder, the pIC50 is the IC50 on a negative log10 scale, so that one unit is a factor of ten. A higher pIC50 goes with a small IC50.

pIC50, pKi: −log10 of the molar value.

Data set [1] has as its target D(2) dopamine receptor (Rattus norvegicus, UniProt P61169). The data set is described as follows: Displacement of [3H]spiperone from dopaminergic D2 receptor in rat striatum homogenates after 60 mins by liquid scintillation counting. For orientation: Displacement assays read how much labelled ligand stays bound in the presence of the test substance.
Data set [2] deals with 5-hydroxytryptamine receptor 2A (Rattus norvegicus, UniProt P14842). The data set is described as follows: Displacement of [3H]ketanserine from 5-HT2A receptor in rat cerebral cortex homogenates after 60 mins by liquid scintillation counting. Type of data set: tissue-based.
The target in data set [3] is T1, 5-hydroxytryptamine receptor 1A (Rattus norvegicus, UniProt P19327).
T1 sequence (P19327 whole entry): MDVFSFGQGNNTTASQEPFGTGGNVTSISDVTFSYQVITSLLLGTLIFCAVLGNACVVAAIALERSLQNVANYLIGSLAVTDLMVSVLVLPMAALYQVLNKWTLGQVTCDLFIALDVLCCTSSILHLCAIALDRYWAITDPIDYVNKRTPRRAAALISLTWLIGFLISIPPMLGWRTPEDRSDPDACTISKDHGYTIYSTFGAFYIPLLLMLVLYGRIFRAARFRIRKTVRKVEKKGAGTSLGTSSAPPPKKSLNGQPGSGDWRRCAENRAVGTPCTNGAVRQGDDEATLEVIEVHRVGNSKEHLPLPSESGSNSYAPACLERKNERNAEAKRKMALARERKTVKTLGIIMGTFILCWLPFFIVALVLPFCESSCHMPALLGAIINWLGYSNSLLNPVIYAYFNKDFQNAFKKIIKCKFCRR
The data set is described as follows: Displacement of [3H]8-OH-DPAT from 5-HT1A receptor in rat cerebral cortex homogenates after 60 mins by liquid scintillation counting. Type of data set: tissue-based.

Data set [4] deals with Mus musculus. The data set is described as follows: Antipsychotic activity in po dosed Chinese Kun Ming mouse assessed as inhibition of DOI-induced head twitch administered 60 mins before DOI challenge measured up to 15 mins. The class given is functional.
Data set [5] concerns Mus musculus. Put plainly: Toxicity in po dosed Chinese Kun Ming mouse assessed as induction of catalepsy by measuring immobility score of 30 seconds administered 30 mins before first assessment. The note with it: in vivo, 0.5 h. The class given is organism-based.
Data set [6] relates to Mus musculus. Put plainly: Antipsychotic activity in po dosed Chinese Kun Ming mouse assessed as inhibition of apomorphine-induced climbing administered 30 mins before apomorphine challenge measured up to 30 mins. Type of data set: functional.
Data set [7] can be described thus: Acute toxicity in Sprague-Dawley rat. Type of data set: organism-based. The note with it: in vivo.
For data set [8], the target named is Voltage-gated inwardly rectifying potassium channel KCNH2 (Homo sapiens, UniProt Q12809). The data set is described as follows: Inhibition of human ERG expressed in HEK293 cells by whole-cell patch clamp method. Type of data set: cell-based. (In general: Patch clamp records ionic current or voltage across a cell membrane.)
The subject of data set [9] is Mus musculus. The data set is described as follows: Neurotoxicity in Chinese Kun Ming mouse assessed as locomotor activity by measuring total distance traveled at 3 mg/kg, po administered 1 hr before test measured for 10 mins (reference value: 13881.4 +/- 8595.8 millimeter). The class given is toxicity, organism-based. The note with it: in vivo.
The test system of data set [10] is Mus musculus. The data set is described as follows: Neurotoxicity in Chinese Kun Ming mouse assessed as locomotor activity by measuring total distance traveled at 1 mg/kg, po administered 1 hr before test measured for 10 mins (reference value: 13881.4 +/- 8595.8 millimeter). The class given is toxicity, organism-based. The note with it: in vivo.
For data set [11], the system named is Mus musculus. Put plainly: Neurotoxicity in Chinese Kun Ming mouse assessed as locomotor activity by measuring total distance traveled at 10 mg/kg, po administered 1 hr before test measured for 10 mins (reference value: 13881.4 +/- 8595.8 millimeter). The class given is toxicity, organism-based. The following applies: in vivo.
The test system of data set [12] is Mus musculus. The data set is described as follows: Neurotoxicity in Chinese Kun Ming mouse assessed as locomotor activity by measuring total distance traveled at 1 mg/kg, po administered 1 hr before test measured for 10 mins (reference value: 13415.6 +/- 9555.8 millimeter). The note with it: in vivo. The class given is toxicity, organism-based.
For data set [13], the system named is Mus musculus. The data set is described as follows: Neurotoxicity in Chinese Kun Ming mouse assessed as locomotor activity by measuring total distance traveled at 0.3 mg/kg, po administered 1 hr before test measured for 10 mins (reference value: 13415.6 +/- 9555.8 millimeter). The class given is toxicity, organism-based. The note with it: in vivo.
The test system of data set [14] is Mus musculus. The data set is described as follows: Neurotoxicity in Chinese Kun Ming mouse assessed as locomotor activity by measuring total distance traveled at 0.1 mg/kg, po administered 1 hr before test measured for 10 mins (reference value: 13415.6 +/- 9555.8 millimeter). Type of data set: toxicity, organism-based. The note with it: in vivo.

5-hydroxytryptamine receptor 2A, sequence (P14842 whole entry): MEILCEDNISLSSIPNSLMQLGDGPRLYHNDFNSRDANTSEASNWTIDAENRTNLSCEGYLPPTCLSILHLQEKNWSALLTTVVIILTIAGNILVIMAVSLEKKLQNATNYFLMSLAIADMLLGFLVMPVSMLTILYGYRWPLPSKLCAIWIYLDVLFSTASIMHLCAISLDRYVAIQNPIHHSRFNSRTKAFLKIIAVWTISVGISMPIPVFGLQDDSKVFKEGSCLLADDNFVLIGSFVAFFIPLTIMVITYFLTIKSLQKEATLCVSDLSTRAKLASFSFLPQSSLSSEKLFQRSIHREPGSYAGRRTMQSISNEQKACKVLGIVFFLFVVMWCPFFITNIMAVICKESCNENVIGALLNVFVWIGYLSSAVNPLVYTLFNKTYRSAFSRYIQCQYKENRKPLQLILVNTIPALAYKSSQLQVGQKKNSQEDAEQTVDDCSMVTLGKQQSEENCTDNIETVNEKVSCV
D(2) dopamine receptor, sequence (P61169 whole entry): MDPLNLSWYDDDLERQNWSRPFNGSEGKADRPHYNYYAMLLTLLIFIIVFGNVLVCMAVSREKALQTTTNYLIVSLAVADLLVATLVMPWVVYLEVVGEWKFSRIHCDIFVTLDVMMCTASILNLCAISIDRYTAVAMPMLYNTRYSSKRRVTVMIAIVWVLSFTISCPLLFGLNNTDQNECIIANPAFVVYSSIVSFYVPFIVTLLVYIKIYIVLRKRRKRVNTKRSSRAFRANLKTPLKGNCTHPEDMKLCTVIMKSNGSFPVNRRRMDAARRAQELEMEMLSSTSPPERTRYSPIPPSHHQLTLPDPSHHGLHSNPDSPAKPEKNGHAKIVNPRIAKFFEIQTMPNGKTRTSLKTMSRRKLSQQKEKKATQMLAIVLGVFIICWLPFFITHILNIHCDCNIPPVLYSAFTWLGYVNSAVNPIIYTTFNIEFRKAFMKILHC
Voltage-gated inwardly rectifying potassium channel KCNH2, sequence (Q12809 whole entry): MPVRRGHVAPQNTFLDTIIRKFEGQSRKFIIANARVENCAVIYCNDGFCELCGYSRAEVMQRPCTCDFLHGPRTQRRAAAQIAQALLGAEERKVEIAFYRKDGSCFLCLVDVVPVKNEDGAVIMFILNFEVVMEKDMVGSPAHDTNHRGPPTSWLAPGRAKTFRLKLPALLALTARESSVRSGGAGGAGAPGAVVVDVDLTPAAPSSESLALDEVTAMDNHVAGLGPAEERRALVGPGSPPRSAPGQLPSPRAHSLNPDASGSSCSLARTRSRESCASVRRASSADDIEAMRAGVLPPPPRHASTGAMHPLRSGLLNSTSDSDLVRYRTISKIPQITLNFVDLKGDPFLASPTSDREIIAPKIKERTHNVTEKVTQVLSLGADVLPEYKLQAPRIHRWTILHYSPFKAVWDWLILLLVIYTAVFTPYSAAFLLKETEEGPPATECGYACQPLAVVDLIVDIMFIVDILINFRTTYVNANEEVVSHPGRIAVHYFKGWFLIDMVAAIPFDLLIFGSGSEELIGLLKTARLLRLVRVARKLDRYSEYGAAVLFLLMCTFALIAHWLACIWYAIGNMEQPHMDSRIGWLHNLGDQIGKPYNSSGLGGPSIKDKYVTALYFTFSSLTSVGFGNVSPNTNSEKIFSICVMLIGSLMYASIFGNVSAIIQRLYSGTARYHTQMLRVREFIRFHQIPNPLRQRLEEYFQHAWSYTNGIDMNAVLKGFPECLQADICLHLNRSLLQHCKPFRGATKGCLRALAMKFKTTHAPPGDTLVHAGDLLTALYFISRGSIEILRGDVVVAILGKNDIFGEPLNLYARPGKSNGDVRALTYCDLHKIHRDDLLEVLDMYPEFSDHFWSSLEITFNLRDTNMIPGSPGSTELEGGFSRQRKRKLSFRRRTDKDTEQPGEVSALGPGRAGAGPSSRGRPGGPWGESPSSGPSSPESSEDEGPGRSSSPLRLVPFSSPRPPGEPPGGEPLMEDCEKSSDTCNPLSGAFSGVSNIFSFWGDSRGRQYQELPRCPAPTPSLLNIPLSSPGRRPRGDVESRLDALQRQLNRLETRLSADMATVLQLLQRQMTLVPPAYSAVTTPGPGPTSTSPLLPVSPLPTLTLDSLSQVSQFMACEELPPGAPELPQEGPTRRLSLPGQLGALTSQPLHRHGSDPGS

Consider `Fc1ccc2c(C3CCN(CCCOc4ccc(-c5nc6cc(Cl)ccc6o5)cc4)CC3)noc2c1`, for which the values for the pKi in data set [1], in [2] and in data set [3] were 6.18, 6.87 and less than 5.00, respectively.

`Cc1nc2n(c(=O)c1CCN1CCC(c3noc4cc(F)ccc34)CC1)CCCC2` [RISPERIDONE]: the ED50 in data set [4] is 0.045 mg/kg; in [5], 1.3 mg/kg; in data set [6], 0.034 mg/kg.

Turning to `c1ccc2c(c1)OCC(CN1CCN(CCCOc3ccc(-c4nc5ccccc5o4)cc3)CC1)O2` (stereo unspecified), the pKi was less than 5.00 in [1], 5.85 in [2] and less than 5.00 in [3].

Take `COc1ccccc1N1CCN(CCCOc2ccc(-c3nc4ccccc4o3)cc2)CC1`: the pKi is 6.33 in data set [1], 7.53 in [2] and 7.33 in [3].

`c1cnc(N2CCN(CCCOc3ccc(-c4nc5ccccc5o4)cc3)CC2)nc1`: the figures for the pKi in data set [1], in [2] and in data set [3] were 6.70, 7.41 and 7.25, respectively.

With `Fc1ccc2c(C3CCN(CCCOc4ccc(-c5nc6ccccc6s5)cc4)CC3)noc2c1`, the pKi is less than 5.00 in data set [1], 5.90 in data set [2] and 5.76 in [3].

Regarding `Cc1ccc2oc(-c3ccc(OCCCN4CCC(c5noc6cc(F)ccc56)CC4)cc3)nc2c1`, the pKi was less than 5.00 in data set [1], less than 5.00 in data set [2] and 7.12 in data set [3].

Turning to `c1ccc2oc(-c3ccc(OCCCN4CCC(c5nc6ccccc6s5)CC4)cc3)nc2c1`, the results for the pKi in data set [1], in data set [2] and in data set [3] were less than 5.00, 6.55 and 6.84, respectively.

Regarding `COc1cc(OCCCN2CCC(c3noc4cc(F)ccc34)CC2)ccc1-c1nc2ccccc2o1`, the pKi was 5.92 in data set [1], 7.14 in [2] and 5.81 in data set [3].

Turning to `c1ccc(N2CCN(CCCOc3ccc(-c4nc5ccccc5o4)cc3)CC2)nc1`, the values for the pKi in data set [1], in data set [2] and in data set [3] were less than 5.00, 5.63 and 5.70, respectively.

Take `Cc1cccc(N2CCN(CCCOc3ccc(-c4nc5ccccc5o4)cc3)CC2)c1C`: the pKi in data set [1] is less than 5.00; in data set [2], 5.67; in [3], 5.33.

`Fc1ccc2c(C3CCN(CCCCOc4ccc(-c5nc6ccccc6o5)cc4)CC3)noc2c1`: the pKi is 5.66 in data set [1], 6.14 in data set [2] and 6.00 in data set [3].

Regarding `c1ccc2oc(-c3ccc(OCCCN4CCC(c5nc6ccccc6o5)CC4)cc3)nc2c1`, the pKi in data set [1] was less than 5.00; in data set [2], 6.61; in data set [3], 6.25.

For `O=C(c1ccc(F)cc1F)C1CCN(CCCOc2ccc(-c3nc4ccccc4o3)cc2)CC1`, the pKi in data set [1] was 6.39; in data set [2], 6.70; in data set [3], 6.94. This compound also came in with an LD50 in data set [7] of 369 mg/kg.

`CC(c1ccc(OCCCN2CCC(c3noc4cc(F)ccc34)CC2)cc1)c1nc2ccccc2o1` (stereo unspecified) showed a pIC50 in data set [8] of 6.00. For the same compound, the values for the pKi in data set [1], in data set [2] and in [3] were 7.22, 7.52 and 7.05, respectively. For the same compound, the LD50 in [7] came out at 614 mg/kg.

As to `O=C1CN=C(c2ccccc2Cl)c2cc([N+](=O)[O-])ccc2N1` [CLONAZEPAM], the Activity in [9] is given as 4784.1 mm; in data set [10], 13188.4 mm; in data set [11], 655.7 mm.

`FC(F)(F)c1cccc(N2CCN(CCCOc3ccc(-c4nc5ccccc5o4)cc3)CC2)c1`: the pKi in data set [1] is less than 5.00; in data set [2] it was 5.35; in data set [3] it was less than 5.00.

For `CN1CCN(C2=Nc3cc(Cl)ccc3Nc3ccccc32)CC1` [CLOZAPINE], the values for the ED50 in [4], in data set [5] and in data set [6] were 4.92 mg/kg, 50.5 mg/kg and 3.51 mg/kg, respectively.

For the compound `Cc1cc(-c2nc3ccccc3o2)ccc1OCCCN1CCC(c2noc3cc(F)ccc23)CC1`, the pKi in [1] is 5.80; in data set [2], 7.39; in data set [3], 5.67.

For the compound `Fc1ccc2c(C3CCN(CCCOc4cccc(-c5nc6ccccc6o5)c4)CC3)noc2c1`, the pKi in data set [1], in [2] and in data set [3] was less than 5.00 each time.

As to `Clc1cccc(N2CCN(CCCOc3ccc(-c4nc5ccccc5o4)cc3)CC2)c1Cl`, the values for the pKi in data set [1], in data set [2] and in data set [3] were less than 5.00, 5.54 and less than 5.00, respectively.

For the compound `COc1ccccc1N1CCN(CCCOc2ccc(-c3nc4ccccc4[nH]3)cc2)CC1`, the results for the pKi in data set [1], in [2] and in data set [3] were 7.79, 6.96 and 6.59, respectively.

As to `c1ccc2oc(-c3ccc(OCCCN4CCN(c5nsc6ccccc56)CC4)cc3)nc2c1`, the pKi in data set [1] is 6.06; in [2] it was 7.77; in data set [3], 6.01.

For the compound `O=C(CCCN1CCC(O)(c2ccc(Cl)cc2)CC1)c1ccc(F)cc1` [HALOPERIDOL], the Activity in data set [12] was found to be 744.5 mm; in data set [13], 3580.6 mm; in [14], 8980.9 mm.

Turning to `Fc1ccc2c(C3CCN(CCCOc4ccc(-c5nc6ccccc6o5)c(F)c4)CC3)noc2c1`, the pKi was 6.84 in data set [1], 7.63 in data set [2] and 6.63 in data set [3].

As for `c1ccc(N2CCN(CCCOc3ccc(-c4nc5ccccc5o4)cc3)CC2)cc1`, the pKi in data set [1] is less than 5.00; in data set [2] it was 5.33; in [3] it was less than 5.00.

In data set [8], `Fc1ccc2c(C3CCN(CCCOc4ccc(CCc5nc6ccccc6o5)cc4)CC3)noc2c1` showed a pIC50 of 6.20. Moreover, the pKi in data set [1] was 7.27; in data set [2], 7.42; in data set [3], 7.51. Moreover, in data set [7], the LD50 is 398 mg/kg.
